Reference: patent EP0004810B1 (priority 1978, dated 1979)

Experiments:
[1] = tested on: comédons; parameters: species or system souris femelles atrichis «rhinocéros»; conditions: in vivo
[2] = tested on: PI[…]; assay type: cell-based, Pityrosporum ovale

SMILES | D (grand diamètre) [1] | Rapport d/D [1] | d (diamètre de l'orifice) [1] | C.M.I. [2] [µg/mL]
O=C(OOC(=O)c1cccs1)c1cccs1 [Peroxyde de thénoyle, peroxyde de thénoyle] | 23,5±1,6 unités arbitraires | 0,90 | 21,1±1,7 unités arbitraires | 250
O=C(OOC(=O)c1ccccc1)c1ccccc1 [Peroxyde de benzoyle, peroxyde de benzoyle, reference compound] | 27,0±1,8 unités arbitraires | 0,54 | 14,7±2,1 unités arbitraires | –
